US20040152596A1, “Coated seed and process for coating a seed” (priority 2001, published 2004)

Columns and labels:
Tomato = conditions: for Emergence percentage: fertilizer 10% of seed weight, fixing agent 2% of seed weight
Method: (§1) A number of tests were carried out with the purpose of finding for various plant species the optimal fertilizer and the optimal fertilizer amount in terms of emergence. […] The fixing agent was used in an amount of 2% of the weight of the seeds. […] These percentages are % by weight, calculated from the seed weight.

[1] = fertilizer 4% of seed weight, fixing agent 2% of seed weight

Method for Barley: as §1
Method for Pea: A number of tests were carried out with the purpose of finding for various plant species the optimal fertilizer and the optimal fertilizer amount in terms of emergence. […] The fixing agent was used in an amount of 2% of the weight of the seeds. […] (DCP) or urea phosphate (UP). […] These percentages are % by weight, calculated from the seed weight.
The results of the emergence tests are shown in Table 2, wherein the numeric values indicate the emergence percentage.
Method for Rape: as §1
Method for Sunflower: as §1
Method for Wheat: as §1

| SMILES | Combined effect in terms of plant emergence and phosphorus uptake (Barley) | Emergence percentage (Barley; fertilizer 6% of seed weight, fixing agent 2% of seed weight) | Combined effect in terms of plant emergence and phosphorus uptake (Wheat) | Emergence percentage (Wheat; [1]) | Combined effect in terms of plant emergence and phosphorus uptake (Sunflower) | Emergence percentage (Sunflower; fertilizer 10% of seed weight, fixing agent 2% of seed weight) | Emergence percentage (Rape; fertilizer 8% of seed weight, fixing agent 2% of seed weight) | Emergence percentage (Pea; [1]) | Combined effect in terms of plant emergence and phosphorus uptake (Tomato) | Emergence percentage (Tomato) | Suitability of phosphorus fertilizer as seed coating (emergence table) (Barley) | Suitability of phosphorus fertilizer as seed coating (emergence table) (Wheat) | Suitability of phosphorus fertilizer as seed coating (emergence table) (Sunflower) | Suitability of phosphorus fertilizer as seed coating (emergence table) (Rape) | Suitability of phosphorus fertilizer as seed coating (emergence table) (Pea) |
| --- | --- | --- | --- | --- | --- | --- | --- | --- | --- | --- | --- | --- | --- | --- | --- |
| O=P([O-])(O)O.[K+] [MKP, monopotassium phosphate] | best combined effect | 93% | best combined effect | 85% | best combined effect | 87% | 85 (8%) | 95 (4%) | best combined effect | 80% | – | – | – | – | – |
| NC(N)=O.O=P(O)(O)O [UP, urea phosphate] | – | – | – | – | – | – | – | – | best combined effect | 82% | Not suitable | Not suitable | Not suitable | Not suitable | Not suitable |
